Laboratory results taken from paper PMC7525662, “Preclinical dosimetry models and the prediction of clinical doses of novel positron emission tomography radiotracers” (Scientific Reports, 2020).
Marks after values point to notes of the source that are not given here.

Tests used:
Design in all cases: species or system Sprague–Dawley rats
Conditions in all cases: rat, in vivo
[1] = Comparison of predicted doses across the eight dosimetry models and radiotracers
Protocol: Time-activity curves for each source organ, whole-body and remainder of the body were plotted. […] Residence times (τ) were determined for each radiotracer in source organs, whole-body and remaining (any activity assigned to the whole-body but not assigned to a source organ). Each preclinical source organ’s τ was determined by calculating the area under its respective time-activity curve (activity normalised to the percentage maximum injected dose as a function of time) using the trapezoid method. […] From each individual animal, eight dosimetry models were constructed from all possible combinations of image reconstruction method (FBP or iterative), τ (non-normalised or normalised to human organ masses), and sex of phantom (male or female). All graphs and statistical analyses were generated and performed in GraphPad Prism 5.01 (GraphPad Software Inc., California, USA). One-way ANOVA followed by a Dunnett’s multiple comparison post-hoc test with [^18F]FDG as the control was used to determine which novel radiotracers’ biodistribution and dosimetry differed from [^18F]FDG in the same organs. All statistical tests used α = 0.05 as the measure for statistical significance. Bland–Altman plots were calculated as previously described[33],[34].

[2] = OLINDA/EXM predicted clinical doses: adult male phantom, non-normalised τ, iterative
Protocol: (§1) PET studies were reconstructed using filtered-back projection (FBP) and Mediso’s iterative Tera-Tomo 3D reconstruction algorithm with the following settings: 4 iterations, 6 subsets, full detector model, normal regularization, spike filter on, voxel size 0.4 mm and 400‒600 keV energy window. PET data were corrected for randoms, scatter and attenuation. Time-activity curves for each source organ, whole-body and remainder of the body were plotted. […] Residence times (τ) were determined for each radiotracer in source organs, whole-body and remaining (any activity assigned to the whole-body but not assigned to a source organ). Each preclinical source organ’s τ was determined by calculating the area under its respective time-activity curve (activity normalised to the percentage maximum injected dose as a function of time) using the trapezoid method. […] From each individual animal, eight dosimetry models were constructed from all possible combinations of image reconstruction method (FBP or iterative), τ (non-normalised or normalised to human organ masses), and sex of phantom (male or female).

[3] = OLINDA/EXM predicted clinical doses: adult male phantom, normalised τ, iterative
Protocol: as §1, with “female). Supplementary table 11. Predicted clinical absorbed organ doses and whole-body effective doses of PET radiotracers using normalised adult male source organ residence times from iterative reconstructions.” for “female).”

[4] = OLINDA/EXM predicted clinical doses: adult female phantom, normalised τ, FBP
Protocol: as §1, with “female). Supplementary table 8. Predicted clinical absorbed organ doses and whole-body effective doses of PET radiotracers using normalised adult female source organ residence times from filtered backprojection reconstructions.” for “female).”

NOTA-RGDfK [existing Al^18F-labelled NOTA-RGDfK peptide PET radiotracer; precursor NOTA-RGDfK (1)]
organs predicted to receive the highest absorbed doses (ranking) [1]: urinary bladder > LLI wall > kidneys
Effective Dose (mSv/MBq), Average ± SD [2]: 6.30E-02 mSv/MBq
Estimated Absorbed Dose of Organ, Average ± SD: Adrenals [2]: 7.60E-03 mGy/MBq
Estimated Absorbed Dose of Organ, Average ± SD: Brain [2]: 1.47E-03 mGy/MBq
Estimated Absorbed Dose of Organ, Average ± SD: Breasts [2]: 4.25E-03 mGy/MBq
Estimated Absorbed Dose of Organ, Average ± SD: Gallbladder Wall [2]: 8.74E-03 mGy/MBq
Estimated Absorbed Dose of Organ, Average ± SD: Heart Wall [2]: 6.02E-03 mGy/MBq
Estimated Absorbed Dose of Organ, Average ± SD: Kidneys [2]: 4.41E-02 § mGy/MBq
Estimated Absorbed Dose of Organ, Average ± SD: LLI Wall [2]: 1.50E-01 ‡ mGy/MBq
Estimated Absorbed Dose of Organ, Average ± SD: Liver [2]: 8.14E-03 mGy/MBq
Estimated Absorbed Dose of Organ, Average ± SD: Lungs [2]: 3.96E-03 mGy/MBq
Estimated Absorbed Dose of Organ, Average ± SD: Muscle [2]: 1.06E-02 mGy/MBq
Estimated Absorbed Dose of Organ, Average ± SD: Osteogenic Cells [2]: 1.00E-02 mGy/MBq
Estimated Absorbed Dose of Organ, Average ± SD: Pancreas [2]: 7.83E-03 mGy/MBq
Estimated Absorbed Dose of Organ, Average ± SD: Red Marrow [2]: 9.28E-03 mGy/MBq
Estimated Absorbed Dose of Organ, Average ± SD: Skin [2]: 5.85E-03 mGy/MBq
Estimated Absorbed Dose of Organ, Average ± SD: Small Intestine [2]: 1.73E-02 mGy/MBq
Estimated Absorbed Dose of Organ, Average ± SD: Spleen [2]: 7.40E-03 mGy/MBq
Estimated Absorbed Dose of Organ, Average ± SD: Stomach Wall [2]: 7.65E-03 mGy/MBq
Estimated Absorbed Dose of Organ, Average ± SD: Testes [2]: 1.89E-02 mGy/MBq
Estimated Absorbed Dose of Organ, Average ± SD: Thymus [2]: 5.18E-03 mGy/MBq
Estimated Absorbed Dose of Organ, Average ± SD: Thyroid [2]: 5.01E-03 mGy/MBq
Estimated Absorbed Dose of Organ, Average ± SD: Total Body [2]: 1.06E-02 mGy/MBq
Estimated Absorbed Dose of Organ, Average ± SD: ULI Wall [2]: 1.35E-02 mGy/MBq
Estimated Absorbed Dose of Organ, Average ± SD: Urinary Bladder Wall [2]: 6.89E-01 † mGy/MBq
Effective Dose [3]: 2.17E-02 mSv/MBq
Estimated Absorbed Dose of Organ, Adrenals [3]: 6.76E-03 mGy/MBq
Estimated Absorbed Dose of Organ, Brain [3]: 2.27E-03 mGy/MBq
Estimated Absorbed Dose of Organ, Breasts [3]: 4.34E-03 mGy/MBq
Estimated Absorbed Dose of Organ, Gallbladder Wall [3]: 7.11E-03 mGy/MBq
Estimated Absorbed Dose of Organ, Heart Wall [3]: 1.28E-02 mGy/MBq
Estimated Absorbed Dose of Organ, Kidneys [3]: 2.74E-02 ‡ mGy/MBq
Estimated Absorbed Dose of Organ, LLI Wall [3]: 5.51E-02 § mGy/MBq
Estimated Absorbed Dose of Organ, Liver [3]: 7.32E-03 mGy/MBq
Estimated Absorbed Dose of Organ, Lungs [3]: 6.59E-03 mGy/MBq
Estimated Absorbed Dose of Organ, Muscle [3]: 6.45E-03 mGy/MBq
Estimated Absorbed Dose of Organ, Osteogenic Cells [3]: 8.36E-03 mGy/MBq
Estimated Absorbed Dose of Organ, Pancreas [3]: 6.93E-03 mGy/MBq
Estimated Absorbed Dose of Organ, Red Marrow [3]: 6.11E-03 mGy/MBq
Estimated Absorbed Dose of Organ, Skin [3]: 4.44E-03 mGy/MBq
Estimated Absorbed Dose of Organ, Small Intestine [3]: 9.30E-03 mGy/MBq
Estimated Absorbed Dose of Organ, Spleen [3]: 6.39E-03 mGy/MBq
Estimated Absorbed Dose of Organ, Stomach Wall [3]: 6.44E-03 mGy/MBq
Estimated Absorbed Dose of Organ, Testes [3]: 8.41E-03 mGy/MBq
Estimated Absorbed Dose of Organ, Thymus [3]: 5.44E-03 mGy/MBq
Estimated Absorbed Dose of Organ, Thyroid [3]: 5.10E-03 mGy/MBq
Estimated Absorbed Dose of Organ, ULI Wall [3]: 8.07E-03 mGy/MBq
Estimated Absorbed Dose of Organ, Urinary Bladder Wall [3]: 1.75E-01 † mGy/MBq
Estimated Absorbed Dose, Total Body [3]: 6.69E-03 mGy/MBq
Effective Dose (mSv/MBq), Average ± SD [4]: 2.71E-02 mSv/MBq
Estimated Absorbed Dose of Organ, Average: Adrenals [4]: 1.41E-02 mGy/MBq
Estimated Absorbed Dose of Organ, Average: Brain [4]: 4.10E-03 mGy/MBq
Estimated Absorbed Dose of Organ, Average: Breasts [4]: 1.02E-02 mGy/MBq
Estimated Absorbed Dose of Organ, Average: Gallbladder Wall [4]: 1.36E-02 mGy/MBq
Estimated Absorbed Dose of Organ, Average: Heart Wall [4]: 1.39E-02 mGy/MBq
Estimated Absorbed Dose of Organ, Average: Kidneys [4]: 1.95E-02 § mGy/MBq
Estimated Absorbed Dose of Organ, Average: LLI Wall [4]: 6.76E-02 ‡ mGy/MBq
Estimated Absorbed Dose of Organ, Average: Liver [4]: 8.65E-03 mGy/MBq
Estimated Absorbed Dose of Organ, Average: Lungs [4]: 1.10E-02 mGy/MBq
Estimated Absorbed Dose of Organ, Average: Muscle [4]: 1.29E-02 mGy/MBq
Estimated Absorbed Dose of Organ, Average: Osteogenic Cells [4]: 2.00E-02 mGy/MBq
Estimated Absorbed Dose of Organ, Average: Ovaries [4]: 2.14E-02 mGy/MBq
Estimated Absorbed Dose of Organ, Average: Pancreas [4]: 1.47E-02 mGy/MBq
Estimated Absorbed Dose of Organ, Average: Red Marrow [4]: 1.23E-02 mGy/MBq
Estimated Absorbed Dose of Organ, Average: Skin [4]: 9.76E-03 mGy/MBq
Estimated Absorbed Dose of Organ, Average: Small Intestine [4]: 1.64E-02 mGy/MBq
Estimated Absorbed Dose of Organ, Average: Spleen [4]: 1.38E-02 mGy/MBq
Estimated Absorbed Dose of Organ, Average: Stomach Wall [4]: 1.41E-02 mGy/MBq
Estimated Absorbed Dose of Organ, Average: Thymus [4]: 1.28E-02 mGy/MBq
Estimated Absorbed Dose of Organ, Average: Thyroid [4]: 1.16E-02 mGy/MBq
Estimated Absorbed Dose of Organ, Average: Total Body [4]: 1.31E-02 mGy/MBq
Estimated Absorbed Dose of Organ, Average: ULI Wall [4]: 1.62E-02 mGy/MBq
Estimated Absorbed Dose of Organ, Average: Urinary Bladder Wall [4]: 1.54E-01 † mGy/MBq
Estimated Absorbed Dose of Organ, Average: Uterus [4]: 2.28E-02 mGy/MBq
